Laboratory results as given in US11701368B2 (EYE CO PTY LTD, priority 2018, dated 2023).
Read-outs that look alike come from different tables or passages of the source.

Tests used:
[1] = tested on: New Zealand albino rabbit eyes; details: in vivo
Protocol: (§1) All animals were examined before and after injection using the indirect ophthalmoscope and slit-lamp biomicroscopy. Electroretinography (ERG) was performed on all animals before intravitreal injection and two weeks after injection. The animals were re-examined at this time by indirect ophthalmoscopy and slit-lamp biomicroscopy and were euthanized. The eyes were enucleated and examined with light microscopy.
(§2) Surgeries were performed on the eyes of 25 New Zealand white rabbits. […] The control eyes received 0.1 ml of sterile BSS. All animals were examined before and after injection using indirect ophthalmoscope and slit-lamp biomicroscopy. Electroretinography (ERG) was performed on all animals prior to intravitreal injection and two weeks after injection. The animals were re-examined at this time by indirect ophthalmoscope and slit-lamp biomicroscopy and were euthanized. Their eyes were enucleated and examined with light microscopy.

glucocorticoid receptor = biological target: T1, glucocorticoid receptor (Homo sapiens, UniProt P04150); details: relative to cortisol; cited from earlier work
T1 sequence (P04150 1-777): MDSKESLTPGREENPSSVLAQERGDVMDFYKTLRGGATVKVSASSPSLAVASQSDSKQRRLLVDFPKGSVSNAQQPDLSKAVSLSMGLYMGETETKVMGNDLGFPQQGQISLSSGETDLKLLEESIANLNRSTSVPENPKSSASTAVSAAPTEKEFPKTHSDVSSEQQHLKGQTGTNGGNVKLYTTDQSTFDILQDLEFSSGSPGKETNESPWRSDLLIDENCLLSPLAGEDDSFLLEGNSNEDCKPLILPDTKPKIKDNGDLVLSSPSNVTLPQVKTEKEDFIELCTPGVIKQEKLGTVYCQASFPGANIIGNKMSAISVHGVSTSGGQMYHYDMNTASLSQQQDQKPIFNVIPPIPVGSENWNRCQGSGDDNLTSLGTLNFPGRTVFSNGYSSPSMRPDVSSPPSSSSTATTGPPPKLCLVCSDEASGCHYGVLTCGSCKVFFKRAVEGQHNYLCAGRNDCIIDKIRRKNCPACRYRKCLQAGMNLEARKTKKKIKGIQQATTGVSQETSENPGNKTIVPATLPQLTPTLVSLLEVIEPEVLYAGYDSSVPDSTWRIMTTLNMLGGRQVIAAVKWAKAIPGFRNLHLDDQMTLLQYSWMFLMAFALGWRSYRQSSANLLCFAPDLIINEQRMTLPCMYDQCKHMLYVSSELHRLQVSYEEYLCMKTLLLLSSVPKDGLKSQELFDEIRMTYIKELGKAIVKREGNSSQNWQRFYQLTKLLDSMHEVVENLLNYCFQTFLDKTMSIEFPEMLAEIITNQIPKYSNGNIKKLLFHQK

[2] = tested on: New Zealand albino rabbit eyes; test: Intravitreal toxicology of fludrocortisone acetate in rabbits; details: every 4 weeks; based on difference in vitreous volume between man and rabbit
Protocol: as §1, §2

[3] = biological target: T2, mineralocorticoid receptor (Homo sapiens, UniProt P08235); details: relative to cortisol; cited from earlier work
T2 sequence (P08235 1-984): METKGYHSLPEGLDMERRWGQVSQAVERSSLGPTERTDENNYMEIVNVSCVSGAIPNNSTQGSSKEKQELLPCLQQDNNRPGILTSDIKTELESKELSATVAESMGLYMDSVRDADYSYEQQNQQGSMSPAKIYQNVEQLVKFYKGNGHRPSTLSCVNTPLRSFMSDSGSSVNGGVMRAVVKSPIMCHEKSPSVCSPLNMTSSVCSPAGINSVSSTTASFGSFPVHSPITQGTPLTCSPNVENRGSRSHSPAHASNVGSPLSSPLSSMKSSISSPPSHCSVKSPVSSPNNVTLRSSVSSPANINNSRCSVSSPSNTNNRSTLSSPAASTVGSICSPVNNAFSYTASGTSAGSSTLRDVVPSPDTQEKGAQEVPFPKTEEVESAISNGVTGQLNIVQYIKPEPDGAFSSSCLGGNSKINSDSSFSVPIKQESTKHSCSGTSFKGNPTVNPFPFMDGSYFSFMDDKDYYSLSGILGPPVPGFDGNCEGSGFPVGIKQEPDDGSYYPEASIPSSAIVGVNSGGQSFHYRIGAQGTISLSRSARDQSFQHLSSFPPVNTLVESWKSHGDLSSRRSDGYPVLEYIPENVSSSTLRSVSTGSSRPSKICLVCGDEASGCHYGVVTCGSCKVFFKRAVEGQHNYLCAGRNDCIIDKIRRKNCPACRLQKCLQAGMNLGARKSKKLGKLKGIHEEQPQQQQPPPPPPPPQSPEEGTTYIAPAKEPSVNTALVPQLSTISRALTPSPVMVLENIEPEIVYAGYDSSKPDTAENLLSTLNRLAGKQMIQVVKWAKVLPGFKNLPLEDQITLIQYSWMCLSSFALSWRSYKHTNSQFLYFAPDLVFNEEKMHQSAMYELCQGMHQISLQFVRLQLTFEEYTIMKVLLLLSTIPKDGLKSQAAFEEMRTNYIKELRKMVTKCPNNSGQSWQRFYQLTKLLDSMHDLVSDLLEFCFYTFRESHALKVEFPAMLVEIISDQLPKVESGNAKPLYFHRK

rat model of dry AMD = details: compared with TA; Provis et al.; cited from earlier work
[4] = tested on: New Zealand albino rabbit eyes; details: cited from earlier work; for ERG in the other groups / other eyes: intravitreal 400 μg, 1 mg, 2 mg/0.1 ml and remaining eyes; for time by which all aggregates disappeared: intravitreal
[5] = biological target: T2, mineralocorticoid receptor; test: Mineralocorticoid receptor activity (MR potency) of corticosterones; details: relative potency, hydrocortisone (cortisol) = 1

For `CC(=O)OCC(=O)[C@@]1(O)CC[C@H]2[C@@H]3CCC4=CC(=O)CC[C@]4(C)[C@@]3(F)[C@@H](O)C[C@@]21C` [Fludrocortisone acetate, 9-α-Fiuoro-11β. 17α, 21-trihydroxy-4-pregnene-3, 20 dione acetate], the “tolerability in a panel of animal toxicology studies” value [1] is given as “well-tolerated”, the “glucocorticoid activity, times higher than cortisol” value (glucocorticoid receptor) is given as “ten” and the human equivalent dose [2] is given as 67 mg/eye. For the same compound, the “mineralocorticoid effect, times higher than cortisol” value [3] was 250 times, the “preventing cell death, macrophage recruitment, preserving a- and b-wave ERG amplitude” value (rat model of dry AMD) was “superior to TA” and the “histological examination of retinal sections (light microscopy)” value ([4]; 400 μg to 4 mg/0.1 ml) was “no evidence of toxicity or vacuolization except for one eye in the 4 mg group”. The IOP ([4]; all groups) was “normal”, the “ERG in the other groups / other eyes” value ([4]; two weeks after injection) was “normal ERG” and the “ERG in the other groups / other eyes” value ([4]; two weeks after injection, listed as FCA) was “no other problems of reductions in ERG”. The “eyes with intravitreal haemorrhage and reduced ERG” value ([4]; intravitreal 4 mg/0.1 ml, 25 normal rabbits) was “Two”, the “eyes with decreases in ERG” value ([4]; intravitreal 4 mg/0.1 ml, two weeks after injection) was “one” and the “time by which all aggregates disappeared” value ([4]; 2-mg group) was 22 ± 8 days. The “time by which all aggregates disappeared” value ([4]; 4-mg group) was 33 ± 7 days, the “inflammation in anterior or posterior segment (slit lamp biomicroscopy, indirect ophthalmoscopy)” value ([4]; up to 40 days of observations) was “did not show any evidence of significant inflammation” and the MR potency [5] was 200.
